Results reported in patent US6972286B2, “Oxazolidinones having a benzannulated 6- or 7-membered heterocycle” (Pharmacia and Upjohn Company, priority 2000, dated 2005).
Converted amounts (≈) assume the structure as drawn.

Test system: Streptococcus pneumoniae
Test: Minimum inhibitory concentration (MIC) by agar dilution
Format: cell-based
Details: in vitro, agar dilution (NCCLS 1993), Streptococcus pneumoniae strain SPNE 9912; read-out: Antibacterial Activity Minimum Inhibitory Concentration SPNE 9912
Description: The oxazolidinone antibacterial agents of this invention have useful activity against a variety of organisms. The in vitro activity of compounds of this invention can be assessed by standard testing procedures such as the determination of minimum inhibitory concentration (MIC) by agar dilution as described in “Approved Standard. Methods for Dilution Antimicrobial Susceptibility Tests for Bacteria That Grow Aerobically”, 3rd. ed., published 1993 by the National Committee for Clinical Laboratory Standards, Villanova, Pa. USA.

| MIC [µg/mL] | SMILES |
| --- | --- |
| 1 (≈ 2.88 µM) | COC(=O)N1CCc2cc(N3C[C@H](CNC(C)=O)OC3=O)ccc2C1 [Example 1, (−)-Methyl 6-[(5S)-5-[(acetylamino)methyl]-2-oxo-3-oxazolidinyl]-3,4-dihydro-2(1H)-isoquinolinecarboxylate] |
| 1 (≈ 3.15 µM) | CC(=O)NC[C@H]1CN(c2ccc3c(c2)CCN(C=O)C3)C(=O)O1 [Example 2, (−)-N-[[(5S)-3-[2-Formyl-1,2,3,4-tetrahydro-6-isoquinolinyl]-2-oxo-5-oxazolidinyl]methyl]acetamide] |
| 1 (≈ 2.57 µM) | CC(=O)NC[C@H]1CN(c2ccc3c(c2)CCN(C(=O)COC(C)=O)C3)C(=O)O1 [Example 3, (−)-N-[[(5S)-3-[2-[(Acetyloxy)acetyl]-1,2,3,4-tetrahydro-6-isoquinolinyl]-2-oxo-5-oxazolidinyl]methyl]acetamide] |
| 1 (≈ 2.88 µM) | CC(=O)NC[C@H]1CN(c2ccc3c(c2)CCN(C(=O)CO)C3)C(=O)O1 [Example 4, (−)-N-[[(5S)-3-[2-[(Hydroxy)acetyl]-1,2,3,4-tetrahydro-6-isoquinolinyl]-2-oxo-5-oxazolidinyl]methyl]acetamide] |
| < 0.5 | COC(=O)N1CCc2cc(N3C[C@H](CNC(C)=S)OC3=O)ccc2C1 [Example 5, (+)-Methyl 6-[(5S)-5-[(ethanethioylamino)methyl]-2-oxo-3-oxazolidinyl]-3,4-dihydro-2(1H)-isoquinolinecarboxylate] |
| < 0.5 | CC(=S)NC[C@H]1CN(c2ccc3c(c2)CCN(C=O)C3)C(=O)O1 [Example 6, (+)-N-[[(5S)-3-[2-Formyl-1,2,3,4-tetrahydro-6-isoquinolinyl]-2-oxo-5-oxazolidinyl]methyl]ethanethioamide] |
| < 0.5 | CC(=S)NC[C@H]1CN(c2ccc3c(c2)CCN(C(=O)CO)C3)C(=O)O1 [Example 7, (+)-N-[[(5S)-3-[2-[(Hydroxy)acetyl]-1,2,3,4-tetrahydro-6-isoquinolinyl]-2-oxo-5-oxazolidinyl]methyl]ethanethioamide] |
| 4 (≈ 13.8 µM) | CC(=O)NC[C@H]1CN(c2ccc3c(c2)CCOC3)C(=O)O1 [Example 8, (−)-N-[[(5S)-3-(3,4-Dihydro-1H-2-benzopyran-6-yl)-2-oxo-5-oxazolidinyl]methyl]acetamide] |
| 1 (≈ 3.26 µM) | CC(=S)NC[C@H]1CN(c2ccc3c(c2)CCOC3)C(=O)O1 [Example 9, (+)-N-[[(5S)-3-(3,4-Dihydro-1H-2-benzopyran-6-yl)-2-oxo-5-oxazolidinyl]methyl]ethanethioamide] |
| 0.5 (≈ 1.63 µM) | CC(=O)NC[C@H]1CN(c2ccc3c(c2)CSCC3)C(=O)O1 [Example 14, (−)-N-[[(5S)-3-(3,4-Dihydro-1H-2-benzothiopyran-7-yl)-2-oxo-5-oxazolidinyl]methyl]acetamide] |
| 0.125 (≈ 0.388 µM) | CC(=S)NC[C@H]1CN(c2ccc3c(c2)CSCC3)C(=O)O1 [Example 15, (+)-N-[[(5S)-3-(3,4-Dihydro-1H-2-benzothiopyran-7-yl)-2-oxo-5-oxazolidinyl]methyl]ethanethioamide] |
| 1 (≈ 2.82 µM) | CC(=S)NC[C@H]1CN(c2ccc3c(c2)CS(=O)(=O)CC3)C(=O)O1 [Example 16, (+)-N-[[(5S)-3-(3,4-Dihydro-2,2-dioxido-1H-2-benzothiopyran-7-yl)-2-oxo-5-oxazolidinyl]methyl]ethanethioamide] |
| 2 (≈ 6.2 µM) | CC(=O)NC[C@H]1CN(c2ccc3c(c2)C[S+]([O-])CC3)C(=O)O1 (stereo partly drawn) [Example 17, N-[[(5S)-3-(3,4-Dihydro-2-oxido-1H-2-benzothiopyran-7-yl)-2-oxo-5-oxazolidinyl]methyl]acetamide] |
| 1 (≈ 3 µM) | CC(=S)NC[C@H]1CN(c2ccc3c(c2)CN(C=O)CC3)C(=O)O1 [Example 18, (+)-N-[[(5S)-3-[2-Formyl-1,2,3,4-tetrahydro-7-isoquinolinyl]-2-oxo-5-oxazolidinyl]methyl]ethanethioamide] |
| 2 (≈ 5.5 µM) | CC(=S)NC[C@H]1CN(c2ccc3c(c2)CN(C(=O)CO)CC3)C(=O)O1 [Example 19, (+)-N-[[(5S)-3-[2-[(Hydroxy)acetyl]-1,2,3,4-tetrahydro-7-isoquinolinyl]-2-oxo-5-oxazolidinyl]methyl]ethanethioamide] |
| < 0.5 | CC(=O)NC[C@H]1CN(c2ccc3c(c2)CCCCN3C=O)C(=O)O1 [Example 20, N-{[(5S)-3-(1-Formyl-2,3,4,5-tetrahydro-1H-1-benzazepin-7-yl)-2-oxo-1,3-oxazolidin-5-yl]methyl}acetamide] |
| < 0.5 | CC(=S)NC[C@H]1CN(c2ccc3c(c2)CCCCN3C=O)C(=O)O1 [Example 21, N-{[(5S)-3-(1-Formyl-2,3,4,5-tetrahydro-1H-1-benzazepin-7-yl)-2-oxo-1,3-oxazolidin-5-yl]methyl}ethanethioamide] |
| < 0.5 | CC(=O)NC[C@H]1CN(c2ccc3c(c2)CCN(C(=O)OCc2ccccc2)CC3)C(=O)O1 [Example 22] |
| < 0.5 | CC(=O)NC[C@H]1CN(c2ccc3c(c2)CCN(C=O)CC3)C(=O)O1 [Example 23, N-{[(5S)-3-(3-Formyl-1,2,4,5-tetrahydro-1H-3-benzazepin-7-yl)-2-oxo-1,3-oxazolidin-5-yl]methyl}acetamide] |
| < 0.5 | CC(=O)NC[C@H]1CN(c2ccc3c(c2)CCN(C(=O)CO)CC3)C(=O)O1 [Example 24, N-{[(55)-3-(3-Glycoloyl-1,2,4,5-tetrahydro-1H-3-benzazepin-7-yl)-2-oxo-1,3-oxazolidin-5-yl]methyl}acetamide] |
| 1 (≈ 2.9 µM) | CC(=O)NC[C@H]1CN(c2ccc3c(c2)CCN(C(C)=O)CC3)C(=O)O1 [Example 25, N-{[(5S)-3-(3-Acetyl-1,2,4,5-tetrahydro-1H-3-benzazepin-7-yl)-2-oxo-1,3-oxazolidin-5-yl]methyl}acetamide] |
| 1 (≈ 2.77 µM) | COC(=O)N1CCc2ccc(N3C[C@H](CNC(C)=O)OC3=O)cc2CC1 [Example 26, Methyl 7-{(5S)-5-[(acetylamino)methyl]-2-oxo-1,3-oxazolidin-3-yl}-1,2,4,5-tetrahydro-3H-3-benzazepine-3-carboxylate] |
| 1 (≈ 2.45 µM) | CC(=O)NC[C@H]1CN(c2ccc3c(c2)CCN(C(=O)c2ccccc2)CC3)C(=O)O1 [Example 27, N-{[(5S)-3-(3-Benzoyl-1,2,4,5-tetrahydro-1H-3-benzazepin-7-yl)-2-oxo-1,3-oxazolidin-5-yl]methyl}acetamide] |
| 4 (≈ 10.5 µM) | CC(=O)NC[C@H]1CN(c2ccc3c(c2)CCN(S(C)(=O)=O)CC3)C(=O)O1 [Example 28, N-({(5)-3-[3-(Methylsulfonyl)-1,2,4,5-tetrahydro-1H-3-benzazepin-7-yl]-2-oxo-1,3-oxazolidin-5-yl}methyl)acetamide] |
| 2 (≈ 4.72 µM) | CC(=O)NC[C@H]1CN(c2ccc3c(c2)CCN(C(=O)Oc2ccccc2)CC3)C(=O)O1 [Example 29, Phenyl 7-{(5S)-5-[(acetylamino)methyl]-2-oxo-1,3-oxazolidin-3-yl}-1,2,4,5-tetrahydro-3H-3-benzazepine-3-carboxylate] |
| 1 (≈ 2.37 µM) | CC(=O)NC[C@H]1CN(c2ccc3c(c2)CCN(C(=O)Cc2ccccc2)CC3)C(=O)O1 [Example 30, N-[((5S)-3-{3-(Phenyl)acetyl-1,2,4,5-tetrahydro-1H-3-benzazepin-7-yl}-2-oxo-1,3-oxazolidin-5-yl)methyl]acetamide] |
| 1 (≈ 1.83 µM) | CC(=O)NC[C@H]1CN(c2ccc3c(c2)CCN(C(=O)Cc2ccc(I)cc2)CC3)C(=O)O1 [Example 31, N-[((5S)-3-{3-[(4-Iodophenyl)acetyl]-1,2,4,5-tetrahydro-1H-3-benzazepin-7-yl}-2-oxo-1,3-oxazolidin-5-yl)methyl]acetamide] |
